Test results: US8460669B2, “Compositions and methods for identifying response targets and treating flavivirus infection responses” (Academia Sinica, priority 2005, dated 2013)

Columns and labels:
Langerin = molecular target: T1, Langerin (Homo sapiens, UniProt Q9UJ71); assay: Sugar competition EIA, Fc.Langerin binding to GLPS-F3; details: sugar 1 mg/ml
T1 construct: The extracellular domains of lectin receptors, TREMs and TLTs were cloned by the reverse-transcriptase polymerase chain reaction (RT-PCR); made in house; host or cells: 293-F (FreeStyle 293) cells
T1 sequence (Q9UJ71 65-328 limits assumed): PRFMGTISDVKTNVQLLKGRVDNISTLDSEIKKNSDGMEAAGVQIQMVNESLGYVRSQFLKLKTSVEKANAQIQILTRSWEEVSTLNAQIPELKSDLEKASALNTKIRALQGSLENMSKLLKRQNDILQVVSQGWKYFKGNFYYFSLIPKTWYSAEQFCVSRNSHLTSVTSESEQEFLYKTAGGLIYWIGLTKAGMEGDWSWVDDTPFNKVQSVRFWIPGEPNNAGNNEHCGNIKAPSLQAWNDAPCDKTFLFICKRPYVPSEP
Method: (§1) The interaction between GLPS-F3 and receptor.Fc was then tested. Unbiotinylated GLPS-F3 was immobilized at 100 ng/well as described above, and 100 μL receptor.Fc fusion protein (1 μg/ml in 2 mM MgCl2/2 mM CaCl2/1% BSA/TBST) was added into each well and incubated for 1 hour at room temperature. After washing with TBST, wells were incubated with peroxidase-conjugated goat anti-human IgG Ab (1:5000 dilution, Jackson ImmunoResearch Laboratories) in blocking buffer at room temperature for 30 min. Wells were incubated with 100 μL TMB substrate for 15 min after TBST washing and read at 450 nm in a Fusion plate reader (Perkin Elmer). The results were normalized with respect to Fc.Dectin-1 binding (Dectin-1 is a known lectin receptor that binds to β-1,3-glucan which is the backbone found in GLPS-F3). FIG. 6B depicts in graphical form the affinity of each receptor for GLPS-F3 relative to Dectin-1. […] There was also weaker but positive GLPS-F3 binding ability (25-50% binding intensity compared to Fc.dectin-1) found in Fc.NKG2D, Fc.MINCLE, Fc.mKCR, DCAL1.Fc, DEC205.Fc, Endo180.Fc and NKp30(NCR3).Fc.
(§2) To understand the interaction of GLPS-F3 with specific innate immunity receptors, the polysaccharides mannan and β-glucan and the monosaccharides D-mannose (Man), D-glucose (Glc), N-acetyl-glucosamine (GlcNAc), D-galactose (Gal), N-acetyl-galactosamine (GalNAc), L-fucose (Fuc) and sialic acid, were used in a competition assay. […] The assays were carried out as in Example 9, with the addition of 1 mg/ml of each polysaccharide or monosaccharide.

DC-SIGN = molecular target: T2, DC-SIGN (Homo sapiens, UniProt Q9NNX6); assay: Sugar competition EIA, Fc.DC-SIGN binding to GLPS-F3; details: sugar 1 mg/ml
T2 construct: The extracellular domains of lectin receptors, TREMs and TLTs were cloned by the reverse-transcriptase polymerase chain reaction (RT-PCR); made in house; host or cells: 293-F (FreeStyle 293) cells
T2 sequence (Q9NNX6 59-404 limits assumed): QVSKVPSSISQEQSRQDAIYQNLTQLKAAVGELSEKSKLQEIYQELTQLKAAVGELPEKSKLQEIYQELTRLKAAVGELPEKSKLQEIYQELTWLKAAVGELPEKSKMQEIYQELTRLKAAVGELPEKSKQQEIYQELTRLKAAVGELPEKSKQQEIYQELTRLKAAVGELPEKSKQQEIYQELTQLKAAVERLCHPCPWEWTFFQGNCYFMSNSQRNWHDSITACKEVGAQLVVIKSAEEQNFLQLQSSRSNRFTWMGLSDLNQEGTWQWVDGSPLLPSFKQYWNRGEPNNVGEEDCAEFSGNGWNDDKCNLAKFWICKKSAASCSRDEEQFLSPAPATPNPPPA
Method: as §1, §2

MMR.Fc = molecular target: T3, MMR.Fc (Homo sapiens, UniProt P22897); assay: Sugar competition EIA, MMR.Fc binding to GLPS-F3; details: sugar 1 mg/ml
T3 construct: The extracellular domains of lectin receptors, TREMs and TLTs were cloned by the reverse-transcriptase polymerase chain reaction (RT-PCR); made in house; host or cells: 293-F (FreeStyle 293) cells
T3 sequence (P22897 19-1389 limits assumed): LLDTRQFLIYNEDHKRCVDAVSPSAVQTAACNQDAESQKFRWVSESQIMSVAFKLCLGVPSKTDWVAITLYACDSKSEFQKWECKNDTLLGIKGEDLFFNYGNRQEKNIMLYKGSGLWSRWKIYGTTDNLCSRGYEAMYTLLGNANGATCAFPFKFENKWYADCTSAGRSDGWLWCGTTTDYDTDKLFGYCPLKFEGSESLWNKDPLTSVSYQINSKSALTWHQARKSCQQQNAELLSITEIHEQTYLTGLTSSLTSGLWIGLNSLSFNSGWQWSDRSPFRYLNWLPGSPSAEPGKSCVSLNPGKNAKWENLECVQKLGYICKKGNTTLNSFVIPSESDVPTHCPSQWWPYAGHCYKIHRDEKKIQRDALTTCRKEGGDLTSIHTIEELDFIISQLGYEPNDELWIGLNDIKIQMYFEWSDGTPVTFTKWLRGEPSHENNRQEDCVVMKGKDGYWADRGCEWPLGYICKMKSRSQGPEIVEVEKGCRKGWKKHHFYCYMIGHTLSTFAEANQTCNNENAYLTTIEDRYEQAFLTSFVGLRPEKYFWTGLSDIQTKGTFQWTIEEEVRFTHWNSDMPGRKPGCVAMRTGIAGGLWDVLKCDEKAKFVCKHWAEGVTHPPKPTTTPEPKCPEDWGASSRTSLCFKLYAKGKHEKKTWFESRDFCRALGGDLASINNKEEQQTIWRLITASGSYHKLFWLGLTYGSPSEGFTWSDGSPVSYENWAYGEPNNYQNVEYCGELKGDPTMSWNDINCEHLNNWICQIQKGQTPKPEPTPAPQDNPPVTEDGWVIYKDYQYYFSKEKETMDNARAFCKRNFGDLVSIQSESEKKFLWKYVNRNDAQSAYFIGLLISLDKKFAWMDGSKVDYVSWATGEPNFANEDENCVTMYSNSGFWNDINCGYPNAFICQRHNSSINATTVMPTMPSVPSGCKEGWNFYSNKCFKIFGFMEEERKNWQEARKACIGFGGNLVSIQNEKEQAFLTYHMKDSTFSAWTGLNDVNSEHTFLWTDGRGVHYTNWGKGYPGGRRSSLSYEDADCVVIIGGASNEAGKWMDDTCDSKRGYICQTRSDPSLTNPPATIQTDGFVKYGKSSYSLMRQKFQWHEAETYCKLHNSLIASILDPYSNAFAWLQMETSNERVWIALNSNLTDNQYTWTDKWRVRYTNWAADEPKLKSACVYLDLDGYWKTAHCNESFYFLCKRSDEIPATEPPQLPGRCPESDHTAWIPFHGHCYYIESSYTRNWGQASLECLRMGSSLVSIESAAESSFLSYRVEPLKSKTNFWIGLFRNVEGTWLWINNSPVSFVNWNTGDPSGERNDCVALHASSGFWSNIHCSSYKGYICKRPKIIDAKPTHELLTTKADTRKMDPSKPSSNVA
Method: as §1, §2

CLEC-2 = molecular target: T4, CLEC-2 (Homo sapiens, UniProt Q9P126); assay: Sugar competition EIA, Fc.CLEC-2 binding to GLPS-F3; details: sugar 1 mg/ml
T4 construct: The extracellular domains of lectin receptors, TREMs and TLTs were cloned by the reverse-transcriptase polymerase chain reaction (RT-PCR); made in house; host or cells: 293-F (FreeStyle 293) cells
T4 sequence (Q9P126 55-229 limits assumed): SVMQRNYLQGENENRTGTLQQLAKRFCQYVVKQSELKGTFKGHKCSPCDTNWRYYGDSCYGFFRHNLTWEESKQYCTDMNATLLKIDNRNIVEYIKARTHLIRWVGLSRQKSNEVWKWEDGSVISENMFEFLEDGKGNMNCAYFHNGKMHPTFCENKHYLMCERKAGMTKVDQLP
Method: as §1, §2

Dectin-1 = molecular target: T5, Dectin-1 (Homo sapiens, UniProt Q9BXN2); assay: Sugar competition EIA, Fc.Dectin-1 binding to GLPS-F3; details: sugar 1 mg/ml
T5 construct: The extracellular domains of lectin receptors, TREMs and TLTs were cloned by the reverse-transcriptase polymerase chain reaction (RT-PCR); made in house; host or cells: 293-F (FreeStyle 293) cells
T5 sequence (Q9BXN2 66-247 limits assumed): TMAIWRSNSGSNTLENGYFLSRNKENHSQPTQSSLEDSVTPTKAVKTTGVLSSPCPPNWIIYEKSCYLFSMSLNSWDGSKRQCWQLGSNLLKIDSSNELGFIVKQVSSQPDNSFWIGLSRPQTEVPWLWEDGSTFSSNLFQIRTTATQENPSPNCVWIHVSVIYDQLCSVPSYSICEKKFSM
Method: as §1, §2

TLR4.Fc = molecular target: T6, TLR4.Fc (Homo sapiens, UniProt O00206); assay: Sugar competition EIA, TLR4.Fc binding to GLPS-F3; details: sugar 1 mg/ml
T6 construct: The extracellular domains of several innate immunity receptors from immune cells were cloned by reverse-transcription polymerase chain reaction (RT-PCR); made in house; host or cells: 293-F (FreeStyle 293) cells
T6 sequence (O00206 24-631 limits assumed): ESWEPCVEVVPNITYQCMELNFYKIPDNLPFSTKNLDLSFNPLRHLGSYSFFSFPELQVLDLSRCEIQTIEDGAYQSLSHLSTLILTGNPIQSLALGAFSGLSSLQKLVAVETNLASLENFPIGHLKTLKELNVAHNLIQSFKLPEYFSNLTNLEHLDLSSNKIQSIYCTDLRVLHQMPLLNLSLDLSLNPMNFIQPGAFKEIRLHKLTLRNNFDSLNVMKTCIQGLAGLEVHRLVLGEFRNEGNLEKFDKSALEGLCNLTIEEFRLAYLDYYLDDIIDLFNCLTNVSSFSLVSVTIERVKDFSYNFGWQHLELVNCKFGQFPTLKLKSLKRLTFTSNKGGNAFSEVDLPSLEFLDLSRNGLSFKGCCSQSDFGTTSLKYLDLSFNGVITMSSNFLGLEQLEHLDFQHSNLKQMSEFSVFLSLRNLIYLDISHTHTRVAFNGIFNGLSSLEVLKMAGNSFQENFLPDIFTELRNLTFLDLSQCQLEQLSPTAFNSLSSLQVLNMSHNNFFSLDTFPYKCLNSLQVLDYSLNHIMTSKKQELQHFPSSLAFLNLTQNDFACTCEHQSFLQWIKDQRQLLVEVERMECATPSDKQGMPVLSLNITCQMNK
Method: as §1, §2

CLEC-6 = molecular target: T7, CLEC-6 (Homo sapiens, UniProt Q8WXI8); assay: Sugar competition EIA, Fc.CLEC-6 binding to GLPS-F3; details: sugar 1 mg/ml
T7 construct: The extracellular domains of lectin receptors, TREMs and TLTs were cloned by the reverse-transcriptase polymerase chain reaction (RT-PCR); made in house; host or cells: 293-F (FreeStyle 293) cells
T7 sequence (Q8WXI8 39-215 limits assumed): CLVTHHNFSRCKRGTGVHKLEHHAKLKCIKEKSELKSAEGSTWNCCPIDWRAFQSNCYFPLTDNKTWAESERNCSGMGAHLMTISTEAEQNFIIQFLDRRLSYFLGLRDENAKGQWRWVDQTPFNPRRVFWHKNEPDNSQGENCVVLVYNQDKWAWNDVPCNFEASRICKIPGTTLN
Method: as §1, §2

TLT-2.Fc = molecular target: T8, TLT-2.Fc (Homo sapiens, UniProt Q5T2D2); assay: Immunosorbent dot binding assay with TLT-2.Fc; details: EDTA 10 mM in TBST
T8 construct: The extracellular domains of lectin receptors, TREMs and TLTs were cloned by the reverse-transcriptase polymerase chain reaction (RT-PCR); made in house; host or cells: 293-F (FreeStyle 293) cells
T8 sequence (Q5T2D2 19-268 limits assumed): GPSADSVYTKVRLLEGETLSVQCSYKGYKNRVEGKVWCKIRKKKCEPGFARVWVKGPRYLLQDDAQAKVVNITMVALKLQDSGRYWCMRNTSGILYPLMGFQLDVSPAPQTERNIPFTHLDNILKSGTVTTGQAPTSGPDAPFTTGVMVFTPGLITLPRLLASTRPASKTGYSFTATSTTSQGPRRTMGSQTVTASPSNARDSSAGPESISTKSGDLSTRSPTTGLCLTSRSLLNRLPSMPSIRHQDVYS

DC-SIGNR.Fc = molecular target: T9, DC-SIGNR.Fc (Homo sapiens, UniProt Q9H2X3); assay: Immunosorbent dot binding assay with DC-SIGNR.Fc; details: EDTA 10 mM in TBST
T9 construct: The extracellular domains of lectin receptors, TREMs and TLTs were cloned by the reverse-transcriptase polymerase chain reaction (RT-PCR); made in house; host or cells: 293-F (FreeStyle 293) cells
T9 sequence (Q9H2X3 71-399): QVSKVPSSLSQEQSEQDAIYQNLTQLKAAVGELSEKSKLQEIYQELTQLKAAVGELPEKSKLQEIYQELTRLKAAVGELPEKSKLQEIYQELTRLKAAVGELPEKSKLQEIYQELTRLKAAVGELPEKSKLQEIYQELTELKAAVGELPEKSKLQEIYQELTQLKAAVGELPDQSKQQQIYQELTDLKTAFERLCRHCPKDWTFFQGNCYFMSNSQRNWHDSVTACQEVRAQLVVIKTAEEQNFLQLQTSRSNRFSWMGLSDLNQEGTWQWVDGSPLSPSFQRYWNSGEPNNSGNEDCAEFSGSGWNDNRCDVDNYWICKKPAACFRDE

KCR.Fc = molecular target: T10, KCR.Fc (Mus musculus, UniProt P70194); assay: Immunosorbent dot binding assay with KCR.Fc; details: EDTA 10 mM in TBST
T10 construct: the extracellular domains of DVLR1/CLEC5A (MDL-1), Dectin-1, KCR, and DC-SIGN (as a positive control) were fused to the Fc portion of human IgG1; made in house; host or cells: 293-F (FreeStyle 293) cells
T10 sequence (P70194 70-548 limits assumed): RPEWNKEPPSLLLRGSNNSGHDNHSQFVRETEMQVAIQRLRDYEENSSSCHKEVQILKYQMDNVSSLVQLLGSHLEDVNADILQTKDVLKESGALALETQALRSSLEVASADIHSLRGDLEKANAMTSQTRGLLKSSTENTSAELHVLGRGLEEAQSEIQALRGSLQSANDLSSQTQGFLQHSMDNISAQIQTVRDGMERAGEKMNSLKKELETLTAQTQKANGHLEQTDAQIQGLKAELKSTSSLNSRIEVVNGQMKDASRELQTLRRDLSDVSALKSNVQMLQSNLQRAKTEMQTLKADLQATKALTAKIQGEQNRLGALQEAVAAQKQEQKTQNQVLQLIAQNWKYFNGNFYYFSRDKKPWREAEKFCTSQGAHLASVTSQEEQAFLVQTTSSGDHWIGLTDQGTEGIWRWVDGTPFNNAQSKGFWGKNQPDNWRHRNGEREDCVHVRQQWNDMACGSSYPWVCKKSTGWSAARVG

Dectin-1.Fc = molecular target: T11, Dectin-1.Fc (Homo sapiens, UniProt Q9BXN2); assay: Immunosorbent dot binding assay with Dectin-1.Fc; details: competitor 0.1 μg-1000 μg, or EDTA 10 mM in TBST
T11 construct: The extracellular domains of lectin receptors, TREMs and TLTs were cloned by the reverse-transcriptase polymerase chain reaction (RT-PCR); made in house; host or cells: 293-F (FreeStyle 293) cells
T11 sequence (Q9BXN2 66-247 limits assumed): T5 sequence (Q9BXN2 66-247 limits assumed)

Row | Percentage of binding of Langerin Fc fusion to GLPS-F3 relative to binding in absence of sugar competitor (Langerin) [%] | inhibition of interaction between Fc.Langerin and GLPS-F3 (Langerin) [%] | Percentage of binding of DC-SIGN Fc fusion to GLPS-F3 relative to binding in absence of sugar competitor (DC-SIGN) [%] | inhibition of binding of Fc.DC-SIGN to GLPS-F3 (DC-SIGN) [%] | Percentage of binding of MMR.Fc to GLPS-F3 relative to binding in absence of sugar competitor (MMR.Fc) [%] | inhibition of interaction between GLPS-F3 and MMR.Fc (MMR.Fc) [%] | Percentage of binding of CLEC-2 Fc fusion to GLPS-F3 relative to binding in absence of sugar competitor (CLEC-2) [%] | Percentage of binding of Dectin-1 Fc fusion to GLPS-F3 relative to binding in absence of sugar competitor (Dectin-1) [%] | Percentage of binding of TLR4.Fc to GLPS-F3 relative to binding in absence of sugar competitor (TLR4.Fc) [%] | Percentage of binding of CLEC-6 Fc fusion to GLPS-F3 relative to binding in absence of sugar competitor (CLEC-6) [%] | inhibition of the interaction of F3 with TLT2.Fc (TLT-2.Fc) | inhibition of the interaction of F3 with DC-SIGNR.Fc (DC-SIGNR.Fc) | inhibition of the interaction of F3 with KCR.Fc (KCR.Fc) | inhibition of the interaction between Dectin-1.Fc and F3 (Dectin-1.Fc) | Structure (SMILES)
1 | 16 ± 2.7 | 84 | 73 ± 8.6 | 27 | 22 ± 3.4 | 78 | 103 ± 10.2 | 91 ± 2.6 | 99 ± 4.7 | 99 ± 8.5 |  |  |  |  | CC(=O)N[C@H]1C(O)O[C@H](CO)[C@@H](O)[C@@H]1O (some centres unmarked) [GlcNAc, N-acetyl-glucosamine]
2 |  |  |  |  |  |  |  |  |  |  | not | completely oabolished | completely oabolished | not | O=C(O)CN(CCN(CC(=O)O)CC(=O)O)CC(=O)O [EDTA, Ethylene Diamine Tetra Acetic Acid]
